“Also recorded” adds a separate entry of the source.

Consider nine molecules from patent US8187646B2, “Nucleotide pyrophosphatase inhibitor and coenzyme regenerating systems” (Puratos N.V., priority 2004, dated 2012).

Experiment [1] has as its system wheat flour nucleotide pyrophosphatase (NPP). Put plainly: In vitro NPP inhibition studies (NAD+ degradation by wheat flour extract). The conditions noted are these: for ability to inhibit NPP in wheat flour: ADP about 1-2 mM, phosphates tested at 10 g/l; for reactivation of the inhibited enzyme by divalent metal ions: addition of divalent ions (Mg2+, Mn2+; excess MgCl2, MnCl2, ZnCl2, CaCl2). It counts as biochemical. How it is done:
As an example of nucleotide pyrophosphatase inhibition, pyrophosphate was tested.
To perform in vitro nucleotide pyrophosphatase (NPP) inhibition studies, a reaction mixture of 5 ml was made containing 2.5 ml of flour extract (see Example 12), 1.5 ml of NAD^+ or NADH solution and 1 ml of potential inhibitor. The coenzymes and inhibitors were dissolved in a 0.2 M acetate buffer at pH 5.5. The final coenzyme concentration was 0.5 mM, unless otherwise mentioned. The different phosphates ([…] (Na2H2P2O7), sodium metaphosphate ((NaPO3)n), pentasodium tripolyphosphate (Na5P3O10), tetrasodium pyrophosphate (Na4P2O7) and dicalcium pyrophosphate (CaH2P2O7)) were tested in a concentration of 10 g/l. For the reactivation experiments with metal ions and to test a synergetic effect of glycine with EDTA the reaction mixture was adapted: 500 μl of inhibitor was added together with 500 μl of cation or glycine instead of 1 ml inhibitor. For the reactivation experiments with metal ions, the chloride forms of the cations were used, i.e. MgCl2, MnCl2, ZnCl2 and CaCl2.
A flour extract was prepared based on the method described by Honold et al. (1966, Cereal Chemistry 43:517-528). To 5 g of flour, 25 ml of an aqueous 12.5% sucrose solution was added. The solution was homogenised with an UltraTurrax mixer (IKA Werke, Janke & Kunkel GmbH & CoKG, Staufen, Germany). This homogenised flour suspension was centrifuged during 5 minutes at 1000 rpm (77 g) (SS34 rotor, Sorvall RC 5B centrifuge). The supernatant was recovered and filtrated through Whatman No. 1 filter paper. The filtrate was used as crude flour extract. All steps were carried out between 0° C. and 5° C.

The subject of experiment [2] is nicotinamide coenzymes NAD+/NADH in dough systems. The experiment can be described thus: Coenzyme (NAD+/NADH) concentrations in dough systems (mini doughs). Also noted: species or system wheat. The conditions noted are these: 0.3 g calcium pyrophosphate per 100 g flour; before and after 60 minutes dough resting at 25° C.
Method: The oxidised (NAD^+) and reduced (NADH) form of the nicotinamide coenzymes were extracted from doughs with an acid and alkaline extraction method respectively.
The coenzymes, NAD^+ and NADH, can be determined with an isocratic reversed phase HPLC method on a Varian Prostar HPLC system. Separation of the coenzymes NAD^+ and NADH was carried out on a Chromsep Microspher 3C18 column (3 μm particle size, 4.6×100 mm, Chrompack). The mobile phase was 96% 0.15 M citrate-sodium phosphate buffer (pH 6.8) containing 1 mM EDTA, and 4% methanol (30° C.). The flow rate was 0.5 ml/min and detection was accomplished by UV absorption at 260 nm (Varian Prostar UV 320).
All samples were filtrated (Sartorius Minisart RC15, 0.45 μm) and sample injection (20 μl) was accomplished with a Varian Prostar 410 autosampler. The nucleotide concentration was measured by the peak area of the chromatogram with calibration curves, which were prepared using a known amount of coenzymes.
Baking tests were performed with mini doughs (150 g).
The doughs were kneaded with a pin mixer during 4.5 minutes, after which they were incubated during 20 minutes at 25° C. The dough was sheeted and incubated again at 25° C. during 20 minutes, after which it was sheeted and incubated for 50 minutes at 36° C. and at a relative humidity of 80%. […] Bread volume after baking was determined by the rapeseed displacement method.
Setting [3] is: inhibitor at 4 mM, in vitro tests.

In the case of `O=P([O-])(O)OP(=O)([O-])O.[Ca+2]` [Ca-pyrophosphate, CaH2P2O7], the “inhibition of NAD+ degradation by a wheat flour extract” value in experiment [1] (50 to 100 mM Ca-pyrophosphate) was “completely inhibit”. For `O[C@H](CS)[C@H](O)CS` (racemic) [DTT, dithiothreitol], the “inhibition of the NPP” value in experiment [1] (setting [3]) is on record as “inhibited the NPP at some extent”. With sodium metaphosphate ((NaPO3)n), the “ability to inhibit NPP in wheat flour” value in experiment [1] was “able to inhibit”. In the case of `O=P(O)(O)OP(=O)(O)O` [sodium pyrophosphate, Na2H2P2O7], the “inhibition of the NPP enzyme” value in experiment [1] (100 mM sodium pyrophosphate) was “completely inhibited”. Turning to `O=P([O-])([O-])OP(=O)([O-])OP(=O)([O-])[O-].[Na+].[Na+].[Na+].[Na+].[Na+]` [tripolyphosphate, pentasodium tripolyphosphate (Na5P3O10)], in experiment [1], the “ability to inhibit NPP in wheat flour” value was “able to inhibit”. In the case of `N[C@@H](CS)C(=O)O` [L-cysteine], the “inhibition of the NPP” value in experiment [1] (setting [3]) is reported as “inhibited the NPP at some extent”.

As for `Nc1ncnc2c1ncn2[C@@H]1O[C@H](COP(=O)(O)OP(=O)(O)O)[C@@H](O)[C@H]1O` [ADP], the “inhibition of the NPP” value in experiment [1] (ADP 1 mM) is “inhibit the NPP partially”. The “ability to inhibit NPP in wheat flour” value in experiment [1] was “able to inhibit”. Regarding `O=P(O)(O)OP(=O)(O)O` [pyrophosphate], the “inhibition of NAD+ degradation by a wheat flour extract” value in experiment [1] (10 mM pyrophosphate) and in experiment [1] (20 mM pyrophosphate) was “Partial inhibition” in each case. Besides, the “reactivation of the inhibited enzyme by divalent metal ions” value in experiment [1] is “This is not the case; also recorded: could not reactivate the enzyme”. Further, the “mode of inhibition of wheat flour nucleotide pyrophosphatase” value in experiment [1] (suggested: no reactivation by metal ions, pyrophosphate split into phosphate by flour extract) was “competitive inhibitor”. Moreover, the “coenzyme concentrations (NAD+ and NADH) in dough” value in experiment [2] is on record as “higher coenzyme concentrations were observed”. For `O=C(O)CN(CCN(CC(=O)O)CC(=O)O)CC(=O)O` [EDTA], in experiment [1], the “reactivation of the inhibited enzyme by divalent metal ions” value is given as “reactivated partially”. For the same molecule, the “inhibition of the wheat flour NPP” value in experiment [1] (from a concentration of 4 mM EDTA on, in vitro) is recorded as “complete inhibition”.
